# Laboratory results published in patent publication US5670493A, “Aminophenylphosphonic acid compounds” (priority 1995, dated 1997).
# Counter-ions that a name gives are not always drawn.
# Assays:
# [1] = Cytotoxicity, PAEC (microculture tetrazolium assay); assay type: cell-based; conditions: pig, aorta endothelial cells paec, 3 days, read-out: Cytotoxicity PAEC IC50
# Experimental: (§1) Three cell lines were used:
# (§2) 1 primary culture of pig aorta endothelial cells, PAEC.
# (§3) The cells are cultured in complete RPMI 1640 medium containing 10% of fetal calf serum, 2 mM glutamine, 50 units/ml of penicillin, 50 μg/ml of streptomycin and 10 mM HEPES (pH=7.4).
# (§4) The cells are distributed in microplates and exposed to the compounds of the invention. The cells are then incubated for two days (L1210), 3 days (PAEC) and 4 days (A431). The number of viable cells is then quantified by a colorimetric assay, the microculture tetrazolium assay (Carmichael J., DeGraff W. G., Gazdar A. F., Minna J. D. and Mitchell J. R., Evaluation of a tetrazolium-based semiautomated colorimetric assay: assessment of chemosensitivity testing, Cancer Res., 47, 936-942, (1987)).
# [2] = test system: chick embryo chorioallantoic membrane; assay: Inhibition of the neovascularization of the chick embryo chorioallantoic membrane (CAM test); assay type: in vivo; conditions: for inhibition at 125 µM: Gallus gallus, % of eggs with avascular zone > 4 mm, 48 hours; for CAM test: collective results table, with spread, % of eggs displaying an avascular zone
# Experimental: This test is carried out with chick embryos as described previously (Crum R., Szabo S. and Folkman J., Science, (1985), 230, 1375-1378). Fertilized eggs (D0) are incubated at 37° C. An air pocket is created by withdrawing 1 ml of albumin (D3), and a window is then cut in the shell (D4) and the vitelline membrane is removed to expose the chorioallantoic membrane (CAM).
# The test products are solubilized in ethanol and applied to methylcellulose disks, which are dried and applied to CAM on day 6. Between 8 and 16 eggs are used per group. The zone located around the disk is then examined 48 hours later. Eggs displaying an avascular zone greater than 4 mm in diameter are counted, and the results are expressed as a percentage of eggs displaying an avascular zone. […]
# [3] = Cytotoxicity, L1210 (microculture tetrazolium assay); assay type: cell-based, murine; conditions: mouse, l1210 cells; L1210, 2 days; read-out: Cytotoxicity L 1210 IC50
# Experimental: as §1
# (§5) 1 murine leukemia, L1210,
# as §3, §4
# M 5076 sarcoma = assay: Inhibition of tumor growth in vivo in M 5076 sarcoma in mice; conditions: for M 5076 sarcoma % ITG (inhibition of tumor growth): 13th day; for correlation between antitumor activity and inhibition of angiogenesis: M 5076 antitumor activity versus CAM test, in words
# Experimental: The malignant cells (10^6 /mouse) are inoculated subcutaneously on day 0 to form a tumor nodule. The mice are then distributed at random in treated/control groups (12 mice/group). […] The inhibition of tumor growth (ITG) is evaluated on the 13th day according to the following calculation: [formula]
# [4] = test system: L1210, A431 and PAEC cells; assay: Cytotoxicity (microculture tetrazolium assay), three cell lines; assay type: cell-based, murine (L1210), human (A431), pig (PAEC); conditions: in words
# Experimental: as §1, §5
# 1 human epidermoid carcinoma, A431,
# as §2, §3, §4
# murine leukemia, L1210 = assay: Cytotoxicity, L1210 (microculture tetrazolium assay); assay type: cell-based
# Experimental: as §1, §5, §3, §4
smiles,measurement,setting,value
"O=C(CCCCCCCCC(=O)Nc1ccc(P(=O)(O)O)cc1)Nc1ccc(P(=O)(O)O)cc1 [Example 1, 4,4'-[1,8-Octanediylbis(carbonylamino)]bis(phenylphosphonic acid)tetrasodium salt]",CC50 at 72 h,[1],> 500 µM
same,inhibition at 125 µM,[2],64%
same,CAM test,[2],64 ± 6%
same,CC50 at 48 h,[3],> 500 µM
same,M 5076 sarcoma % ITG (inhibition of tumor growth),"M 5076 sarcoma; 60 mg/kg, intraperitoneal day 1 to day 12",61%
same,correlation between antitumor activity and inhibition of angiogenesis,M 5076 sarcoma,very good correlation
same,cytotoxic effect,[4],without a cytotoxic effect
"O=C(C=C[C@H]1CC[C@H](C=CC(=O)Nc2ccc(P(=O)(O)O)cc2)CC1)Nc1ccc(P(=O)(O)O)cc1 [Example 45, 4,4'-[1,4-trans-Divinylenecyclohexanediylbis(carbonylamino)]bis(phenylphosphonic acid)]",inhibition at 125 µM,[2],89%
"O=C(CCCCCCCCCCCCC(=O)Nc1ccc(P(=O)(O)O)cc1)Nc1ccc(P(=O)(O)O)cc1 [Example 7, 4,4'-[1,12-Dodecanediylbis(carbonylamino)]bis(phenylphosphonic acid)]",inhibition at 125 µM,[2],56%
"O=C(/C=C/C=C/c1ccc(/C=C/C=C/C(=O)Nc2ccc(P(=O)(O)O)cc2)cc1)Nc1ccc(P(=O)(O)O)cc1 [Example 47, 4,4'-[1,4-Di(1,3-trans-trans-butadienylene)benzenediylbis(carbonylamino)]bis(phenylphosphonic acid)]",inhibition at 125 µM,[2],93%
"O=C(C=Cc1ccc(C=CC(=O)Nc2ccc(P(=O)(O)O)cc2)s1)Nc1ccc(P(=O)(O)O)cc1 [Example 39, 4,4'-[2,5-Divinylenethiophenediylbis(carbonylamino)]bis(phenylphosphonic acid)]",inhibition at 125 µM,[2],75%
"Cc1ccc(C(=O)Nc2ccc(S(=O)(=O)O)c3cc(S(=O)(=O)O)cc(S(=O)(=O)O)c23)cc1NC(=O)c1cccc(NC(=O)Nc2cccc(C(=O)Nc3cc(C(=O)Nc4ccc(S(=O)(=O)O)c5cc(S(=O)(=O)O)cc(S(=O)(=O)O)c45)ccc3C)c2)c1 [Suramin, suramin, reference compound]",CC50 at 72 h,[1],202 ± 10 µM
same,inhibition at 125 µM,[2],20%
same,CAM test,[2],20 ± 3%
same,inhibition of neovascularization (CAM),[2]; in words,weak inhibition of neovascularization
same,cytotoxicity on the L 1210 leukemic line,"murine leukemia, L1210",relative cytotoxicity
same,CC50 at 48 h,[3],131 ± 21 µM
same,M 5076 sarcoma % ITG (inhibition of tumor growth),"M 5076 sarcoma; 100 mg/kg, d 1,4,7 i.v.",67%
"O=C(CCCCCCCCCCC(=O)Nc1ccc(P(=O)(O)O)cc1)Nc1ccc(P(=O)(O)O)cc1 [Example 5, 4,4'-[1,10-Decanediylbis(carbonylamino)]bis(phenylphosphonic acid)tetrasodium salt]",inhibition at 125 µM,[2],68%
"O=C(C=Cc1ccc(C=CC(=O)Nc2ccc(P(=O)(O)O)cc2)cc1)Nc1ccc(P(=O)(O)O)cc1 [Example 24, 4,4'-[1,4-Divinylenebenzenediylbis(carbonylamino)]bis(phenylphosphonic acid)]",inhibition at 125 µM,[2],82%
"O=C(C=Cc1ccc(C=CC(=O)Nc2ccc(P(=O)(O)O)cc2)c2ccccc12)Nc1ccc(P(=O)(O)O)cc1 [Example 44, 4,4'-[1,4-Divinylenenaphthalenediylbis(carbonylamino)]bis(phenylphosphonic acid)]",inhibition at 125 µM,[2],80%
"O=C(C=Cc1ccc2cc(C=CC(=O)Nc3ccc(P(=O)(O)O)cc3)ccc2c1)Nc1ccc(P(=O)(O)O)cc1 [Example 40, 4,4'-[2,6-Divinylenenaphthalenediylbis(carbonylamino)]bis(phenylphosphonic acid)]",inhibition at 125 µM,[2],68%
"O=C(Nc1ccc(P(=O)(O)O)cc1)c1ccc(Cc2ccc(C(=O)Nc3ccc(P(=O)(O)O)cc3)cc2)cc1 [Example 11, 4,4'-[4,4'-Diphenylmethanediylbis(carbonylamino)]bis(phenylphosphonic acid)tetra-sodium salt]",CC50 at 72 h,[1],429 µM
same,inhibition at 125 µM,[2],65%
same,CAM test,[2],65 ± 8%
same,CC50 at 48 h,[3],> 500 µM
same,M 5076 sarcoma % ITG (inhibition of tumor growth),"M 5076 sarcoma; 30 mg/kg, intraperitoneal day 1 to day 12",60%
same,correlation between antitumor activity and inhibition of angiogenesis,M 5076 sarcoma,very good correlation
same,cytotoxic effect,[4],without a cytotoxic effect
"O=C(CCCCCCCCCCCCCC(=O)Nc1ccc(P(=O)(O)O)cc1)Nc1ccc(P(=O)(O)O)cc1 [Example 8, 4,4'-[1,13-Tridecanediylbis(carbonylamino)]bis(phenylphosphonic acid)]",inhibition at 125 µM,[2],90%
"O=C(CC[C@H]1CC[C@H](CCC(=O)Nc2ccc(P(=O)(O)O)cc2)CC1)Nc1ccc(P(=O)(O)O)cc1 [Example 32, 4,4'-[trans-1,4-Diethylenecyclohexanediylbis(carbonylamino)]bis(phenylphosphonic acid)]",inhibition at 125 µM,[2],80%
